The values below come from patent US8173633B2, “Protein kinase C activity enhancer containing alkyl ether derivative or salt thereof” (Toyama Chemical Co., Ltd., priority 2006, dated 2012).

The target of this assay is T1, PKCε (Rattus norvegicus, UniProt P09216).
T1 construct: The cerebral cortex was removed from 18-day fetuses of Wistar/ST rats; endogenous in cells; host or cells: primary cultured cerebral cortex cells from 18-day fetuses of Wistar/ST rats
T1 sequence (P09216 1-737): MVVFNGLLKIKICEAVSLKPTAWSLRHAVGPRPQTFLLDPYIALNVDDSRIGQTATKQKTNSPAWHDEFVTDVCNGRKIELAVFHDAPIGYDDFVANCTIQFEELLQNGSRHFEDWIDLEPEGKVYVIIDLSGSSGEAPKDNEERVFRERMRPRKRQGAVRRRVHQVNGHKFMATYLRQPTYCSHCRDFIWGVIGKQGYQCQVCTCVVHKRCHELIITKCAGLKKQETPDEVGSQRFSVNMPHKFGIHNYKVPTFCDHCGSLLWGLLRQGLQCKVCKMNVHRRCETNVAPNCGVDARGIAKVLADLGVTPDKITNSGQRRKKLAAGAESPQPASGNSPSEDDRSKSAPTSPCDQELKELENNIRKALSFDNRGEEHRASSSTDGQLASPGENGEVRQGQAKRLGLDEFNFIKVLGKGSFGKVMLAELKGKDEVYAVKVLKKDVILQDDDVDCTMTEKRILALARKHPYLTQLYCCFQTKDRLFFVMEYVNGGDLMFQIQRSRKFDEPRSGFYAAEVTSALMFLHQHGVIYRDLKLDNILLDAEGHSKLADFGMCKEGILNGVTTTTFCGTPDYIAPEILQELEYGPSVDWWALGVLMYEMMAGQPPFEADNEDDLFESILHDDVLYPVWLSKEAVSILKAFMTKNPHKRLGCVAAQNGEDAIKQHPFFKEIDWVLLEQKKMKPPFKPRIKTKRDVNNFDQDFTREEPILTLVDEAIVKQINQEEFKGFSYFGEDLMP
Description: PKC activity enhancing effect in cultured cells (PKCε migration from cytosol to membrane fraction, western blotting). It is filed as cell-based, Wistar/ST rats. Particulars: cultured fetal rat cerebral cortex cells, 0.1 μmol/L in terms of T-817, FIG. 1. As for the experimental part: The PKC activity was determined, according to the method of Etcheberrigaray et al. (Proceedings of the National Academy of Sciences of the United States of America, 2004, Vol. 101, No. 30, p. 11141-11146), as applicable. At the time of activation, PKC migrates from the cytoplasm to membranes. The PKC level in the membrane fraction over that in the cytosol fraction was taken as the index of PKC activation. In this experiment, the activity of PKCε, a known isoform of PKC, was measured.
Cultured cells were prepared following the method of Hirata et al. (J. Pharmacol. Exp. Ther., 2005, Vol. 314, No. 1, p. 252-259). […]
On Day 8 from the start of the culturing, T-817MA was added to the cells to a final concentration of 0.1 μmol/L, in terms of T-817, After this addition, the cells were washed with PBS at 0 (untreated), 1, 2 and 4 hours. […] The protein concentration in the cytosol fraction and the membrane fraction was measured, and the protein content in each sample was adjusted to a certain constant level with the extraction buffer or the extraction buffer containing Triton X-100, These samples were then diluted with electrophoresis buffer containing mercaptoethanol (manufactured by Wako Pure Chemical Industries Ltd.) and SDS-PAGE (40 mA, 30 minutes) was carried on 10% polyacrylamide gel. […]
For orientation: A western blot detects proteins with antibodies after separation by electrophoresis.

With `O=C(O)/C=C\C(=O)O.OC1CN(CCCOCCc2ccc3sccc3c2)C1` [T-817MA], the “PKCε migration from the cytoplasm to membranes (index of PKC activation)” value is recorded as “migrated from the cytoplasm to membranes” (2 hours after treatment) and “migrated from the cytoplasm to membranes” (4 hours after treatment).
